Patent US20130035343A1, “COMBINATION OF ORGANIC COMPOUNDS” (priority 2010, published 2013)

System: patient-derived HCC xenograft lines (07-0409, 29-0909A, 01-0909)
Test: Patient-derived HCC xenograft models in SCID mice
Details: for tumor growth rate of xenografts / tumor regressions: single agent therapy, 30 mg/kg Compound of Formula I or 5 mg/kg RAD001 orally daily, HCC07-0409
[1] = 30 mg/kg Compound of Formula I orally daily, SCID mice

Experimental: Xenograft models: All mice were provided with sterilized food and water ad libitum and housed in negative pressure isolators with 12 hours light/dark cycle. Primary HCCs have previously been used to create xenograft lines, of which the following lines (07-0409, 29-0909A, 01-0909) were used to establish tumors in male SCID mice (Animal Resources Centre, Canning Vale, Western Australia) aged 9 to 10 weeks.
Tumor treatment: Compound of Formula I and RAD001 was dissolved in vehicle at an appropriate concentration before treatment. Mice bearing indicated tumors were orally administered 5 mg/kg RAD001 or 30 mg/kg Compound of Formula I daily, or two compounds combined for indicated days. Each treatment group was comprised of 10 animals and each experiment was repeated at least twice. Treatment started on day 7 after tumor implantation. By this time, the tumors reached the size of approximately 100 mm^3. Tumor growth was monitored and tumor volume was calculated as described. At the end of the study, the mice were sacrificed with body and tumor weights recorded and the tumors harvested for analysis. The efficacy of Compound of Formula I was determined by T/C ratio, where T and C are median weight of drug-treated and vehicle-treated tumor respectively at the end of treatment.

SMILES | acute mortality throughout treatment [1] | body weight loss throughout treatment [1] | anti-tumor activities on patient-derived HCC xenograft lines (lines 07-0409, 29-0909A, 01-0909, 30 mg/kg orally daily) | tumor growth rate of xenografts | tumor regressions
CN1CCN(c2ccc3nc(-c4c(N)c5c(F)cccc5[nH]c4=O)[nH]c3c2)CC1 [Compound of Formula I, 4-Amino-5-fluoro-3-[6-(4-methylpiperazin-1-yl)-1H-benzimidazol-2-yl]-1H-quinolin-2-one] | no acute mortality | no significant weight loss | observed | inhibited | did not induce tumor regressions
CO[C@H]1C[C@@H]2CC[C@@H](C)[C@@](O)(O2)C(=O)C(=O)N2CCCC[C@H]2C(=O)O[C@H]([C@H](C)C[C@@H]2CC[C@@H](OCCO)[C@H](OC)C2)CC(=O)[C@H](C)/C=C(\C)[C@@H](O)[C@@H](OC)C(=O)[C@H](C)C[C@H](C)/C=C/C=C/C=C/1C [RAD001, 40-O-(2-hydroxy)ethyl-rapamycin, reference compound] | – | – | – | inhibited | did not induce tumor regressions
